# In PMC11394002, “5-Aminothiazoles Reveal a New Ligand-Binding Site on Prolyl Oligopeptidase Which is Important for Modulation of Its Protein–Protein Interaction-Derived Functions” (Journal of Medicinal Chemistry, 2024):
# Read-outs that look alike come from different tables or passages of the source.
# Key:
# [1] = tested on: αSyn dimerization in Neuro2A cells; assay: α-Synuclein dimerization assay (split Gaussia luciferase PCA); format: cell-based, mouse
# [2] = tested on: HEK-293 cells stably expressing GFP-LC3B; assay: Autophagic flux assay (GFP signal); format: cell-based, human
# [3] = tested on: αSyn dimerization in Neuro2A cells; settings: luminescence signal percentage of DMSO control with SEM, cited from earlier work
# [4] = tested on: HEK-293 cells stably expressing GFP-LC3B; settings: GFP signal percentage of DMSO control with SEM, ref 16 or 19; cited from earlier work
smiles,measurement,setting,value
"CC(C)c1nc(CCc2c[nH]c3ccccc23)sc1N1CCCC1 [Compound 16k, 2-(2-(1H-Indol-3-yl)ethyl)-4-isopropyl-5-(pyrrolidin-1-yl)thiazole]",effect on αSyn dimerization (in words),"[1]; 10 μM, SAR discussion",loss of activity
same,effect on autophagy (in words),"[2]; 10 μM, SAR discussion",loss of activity
C[C@H](NC(=O)CCCc1ccccc1)C(=O)N1CCC[C@H]1c1nnn[nH]1 [HUP-28],αSyn dimerization at 10 μM,[3]; ref 16 or 19,75 ± 5%
same,autophagy at 10 μM,[4],71 ± 6%
"Cc1nc(CCCc2ccccc2)sc1N1CCC[C@H]1C#N [HUP-46, (S)-1-(4-Methyl-2-(3-phenylpropyl)thiazol-5-yl)pyrrolidine-2-carbonitrile]",concentration of maximal efficacy in the αSyn dimerization assay,[1],10 µM
same,"autophagic flux, concentration–response",[2],concentration-dependent up to 20 μM
Cc1nc(CCCc2ccccc2)oc1N1CCC[C@H]1C#N [HUP-55],αSyn dimerization at 10 μM,[3],85 ± 2%
CO[C@H]1C[C@@H]2CC[C@@H](C)[C@@](O)(O2)C(=O)C(=O)N2CCCC[C@H]2C(=O)O[C@H]([C@H](C)C[C@@H]2CC[C@@H](O)[C@H](OC)C2)CC(=O)[C@H](C)/C=C(\C)[C@@H](O)[C@@H](OC)C(=O)[C@H](C)C[C@H](C)/C=C/C=C/C=C/1C [Rapamycin],GFP signal of the baseline,"[2]; rapamycin positive control (0.5 μM), maximum effect in this assay",about 65%
